Reference: publication PMC12340070, “A novel modulator of IL-6R prevents inflammation-induced preterm birth and improves newborn outcome” (EMBO Molecular Medicine, 2025)

Tests used:
p38 = p38 phosphorylation in HEK-Blue IL-6 cells (immunoblot); type: cell-based, human; details: for p-p38 phospho/total: densitometry
Description: (§1) For RT-qPCR experiments, cells were plated in 6-well plates at 70% of confluence and starved overnight. Cells were treated respectively with HSJ633, HSJ630, HSJ631, HSJ634, HSJ635, HSJ639 (1 × 10^−6 M), or TCZ (3.44 μM, based on validated doses (Sahraoui et al, [2014])) for TNF-α expression. For hIL-1, hIL-6, and hTNF-α expression, cells were treated with HSJ633 using concentrations ranging from 10^−11 to 10^−4 M, allowing for equilibrium over 15 min. Cells were then treated with […] of IL-6 for 6 h for both experiments. Cell lysis was performed by adding RIBOzol. Samples were stored at −20 °C until analysis by quantitative PCR. To determine the degree of phosphorylation of different proteins (STAT3, ERK, AKT, and p38), HEK-Blue IL-6 cells were treated with HSJ633 (10^−6 M), TCZ (3.44 uM) or vehicle for 30 min in DMEM only. Human IL-6 (3.86 nM) was added to the medium for 15 min to stimulate IL-6R pathways leading to STAT3, ERK, and AKT activation. For p38 activation, 25 min of stimulation with IL-6 was required. The wells were charged with radioimmunoprecipitation assay buffer (RIPA) at a concentration of 1×, cOmplete EDTA-free Protease Inhibitor Cocktail final concentration 1×, and phenylmethanesulfonyl fluoride (PMSF) 1 mM. Samples were shaken for 30 min followed by centrifugation at 12,000 RPM at 4 °C for 20 min to harvest the proteins. Proteins were stored at −80 °C until analysis by immunoblotting.
(§2) A total of 15 μL of protein from HEK-Blue IL-6 cells combined with Laemmli-SDS 1× (reducing) was loaded onto SDS-PAGE gel and electro-transferred onto polyvinylidene difluoride membranes. After blocking with BSA 5%-TBST for 1 h, membranes were incubated with the following antibodies (Ab): either mouse anti-phospho-STAT3 (1:1000), rabbit anti-phospho-AKT (1:1000), rabbit anti-phospho-ERK1/2 (1:1000), rabbit anti-phospho-p38 (1:1000), rabbit anti-cytochrome c oxidase 4 (1:5000) or mouse anti-GAPDH (1:20,000, Proteintech). After washing, membranes were incubated for 1 h with secondary antibodies conjugated to HRP (1:3000 Anti-rabbit IgG, HRP-linked Antibody and 1:5000 Goat Anti-Mouse IgG (H + L)-HRP Conjugate). Samples were normalized by membrane stripping (15 g glycine, 1 g SDS, 10 mL Tween-20 at pH 2,2) and incubation with Ab (mouse anti-STAT3 (1:1000), rabbit anti-AKT (1:1000), rabbit anti-ERK1/2 (1:1000) or rabbit anti-p38 (1:1000)). After washing, membranes were incubated for 1 h with secondary antibodies conjugated to HRP (1:3000 Anti-rabbit IgG, HRP-linked antibody and 1:5000 goat anti-mouse IgG (H + L)-HRP Conjugate). Western Lightning Plus ECL or Clarity MAX Western ECL Substrate were used for protein detection using the ChemiDoc MP, and densitometric analysis were completed with ImageLab from Bio-Rad Laboratories.

[1] = tested on: preterm birth in pregnant women; details: pregnancies prospectively reported following exposure; ref Hoeltzenbein et al, 2016; cited from earlier work
Text: Complete or partial inhibition of the IL-6 receptor by HSJ633 reduces maternal inflammation and thus prematurity levels.

[2] = tested on: murine IL-6R (Ba/F3-gp130-mIL-6R); details: ref Lokau et al, 2020; cited from earlier work
Text: HSJ633 has been formulated based on the human IL-6 receptor. […] Both Tocilizumab and MR-16 act as orthosteric antagonists, competitively interfering with IL-6 for receptor occupancy (Lokau et al, [2020]). The ...

AKT = AKT phosphorylation in HEK-Blue IL-6 cells (immunoblot); type: cell-based, human; details: for p-AKT phospho/total: 10 min, densitometry
Description: as §1, with “Human IL-6 (3.86 nM) was added to the medium for 15 min to stimulate IL-6R pathways leading to STAT3, ERK, and AKT activation.” left out
as §2

ERK1/2 = ERK1/2 phosphorylation in HEK-Blue IL-6 cells (immunoblot); type: cell-based, human; details: for p-ERK 1/2 phospho/total: 10 min, densitometry
Description: as §1, with “Human IL-6 (3.86 nM) was added to the medium for 15 min to stimulate IL-6R pathways leading to STAT3, ERK, and AKT activation.” left out
as §2

STAT3 = STAT3 phosphorylation in HEK-Blue IL-6 cells (immunoblot); type: cell-based, human; details: for p-STAT3 phospho/total: 10 min, densitometry
Description: as §1, with “Human IL-6 (3.86 nM) was added to the medium for 15 min to stimulate IL-6R pathways leading to STAT3, ERK, and AKT activation.” left out
as §2

[3] = HEK-Blue IL-6, IL-6 3.86 nM, HSJ633 1 μM, TCZ 3.44 μM

Tocilizumab: IL-6R orthosteric antagonist monoclonal antibody
p38 phosphorylation, result in words (p38; [3]): blocked
p-p38 phospho/total (p38; average): 0.66
p-p38 phospho/total (p38; replicate 1): 0.67
p-p38 phospho/total (p38; replicate 2): 0.65
increase rate in preterm birth vs general population [1]: 31.1%
proliferation and activation of STAT3 in Ba/F3-gp130-mIL-6R [2]: no hindrance on the proliferation and activation of STAT3
p-AKT phospho/total (AKT; average): 0.06
p-AKT phospho/total (AKT; replicate 2): 0.0565
p-AKT phospho/total (AKT; replicate 3): 0.06
AKT phosphorylation, result in words (AKT; [3]): blocked
p-ERK 1/2 phospho/total (ERK1/2; average): 0.11
p-ERK 1/2 phospho/total (ERK1/2; replicate 2 (633-2 marked Outliers)): 0.12
p-ERK 1/2 phospho/total (ERK1/2; replicate 3): 0.09
ERK1/2 phosphorylation, result in words (ERK1/2; [3]): blocked
p-STAT3 phospho/total (STAT3; mean (Moyenne)): 0.57
p-STAT3 phospho/total (STAT3; replicate 2): 0.67
p-STAT3 phospho/total (STAT3; replicate 3): 0.46
STAT3 phosphorylation, result in words (STAT3; [3]): blocked
